These are literature values, as cited in patent US20260345512A1, “TRANSDERMAL DELIVERY OF DEXTROMETHORPHAN” (SHINKEI THERAPEUTICS, INC., priority 2022, published 2026).

Molecules are shown by their SMILES.

The conditions of data set [1]: dextromethorphan alone.
The conditions of data set [2]: without enhancer.

For the compound `COc1ccc2c(c1)[C@]13CCCC[C@@H]1[C@H](C2)N(C)CC3` [dextromethorphan], the “adverse reactions reported with use of the individual component” value in data set [1] is “drowsiness, dizziness, nervousness or restlessness, nausea, vomiting, and stomach pain”.

On to `C[C@]12CC[C@H]3[C@@H](CCC4=CC(=O)CC[C@@]43C)[C@@H]1CC[C@@H]2O` [testosterone], for which the “transdermal delivery rate relative to beta estradiol” value in data set [2] was “three orders of magnitude higher”.
